What all share (format): cell-based
In test [1] the test system is Staphylococcus aureus 53154 IP. Description: In vitro antibacterial activity, MIC, Staphylococcus aureus 53154 IP. The following applies: Staphylococcus aureus 53154 IP; 37° C., pH=7.4, inoculum 10^4; read-out: MIC. The protocol: (§1) Tests carried out in vitro in accordance with the experimental procedure described hereunder have provided evidence of the antibacterial activity in question.
(§2) For this purpose, the M.I.C. were determined i.e. the minimal inhibiting concentrations of the compound under study acting on the growth of the bacteria at 37° C.
(§3) The serial dilutions method was used utilizing a MUELLER HINTON gelose medium at pH=7.4 and a bacterial inoculum of 10^4 units forming colonies. This inoculum was applied to the gelose by means of a multiple sowing device.
(§4) A scale of concentrations ranging from 100 to 0.05 μg/ml of compound to be studied was used starting from mother solutions titrating 1000 μg/ml, all the subsequent dilutions being effected in distilled water.

Test [2] has as its system Streptococcus faecalis 5855 IP. Description: In vitro antibacterial activity, MIC, Streptococcus faecalis 5855 IP. The following applies: Enterococcus faecalis, 37° C., pH=7.4, inoculum 10^4, read-out: MIC. The protocol: as §1, §2, §3, §4
Test [3] relates to Bacillus subtilis ATCC 6633. The test is described as follows: In vitro antibacterial activity, MIC, Bacillus subtilis ATCC 6633. The following applies: ATCC6633. The protocol:
as §1, §2, §3, §4

The test system of test [4] is Escherichia coli 54127 IP. The test is described as follows: In vitro antibacterial activity, MIC, Escherichia coli 54127 IP. The protocol:
as §1, §2, §3, §4

For test [5], the system named is Escherichia coli SOL RL 90. Description: In vitro antibacterial activity, MIC, Escherichia coli SOL RL 90. The following applies: SOLRL90. The protocol:
as §1, §2, §3, §4

The test system of test [6] is Citrobacter freundii GN 346. Description: In vitro antibacterial activity, MIC, Citrobacter freundii GN 346. The following applies: GN346. The protocol: as §1, §2, §3, §4
Test [7] concerns Proteus vulgaris RL 99 bis. The test is described as follows: In vitro antibacterial activity, MIC, Proteus vulgaris RL 99 bis. The following applies: RL99BIS. The protocol: as §1, §2, §3, §4
Test [8] has as its system Proteus mirabilis ATCC 21100. Description: In vitro antibacterial activity, MIC, Proteus mirabilis ATCC 21100. The following applies: ATCC21100. The protocol:
as §1, §2, §3, §4

Another test has as its system Proteus morganii 1510. The test is described as follows: In vitro antibacterial activity, MIC, Proteus morganii 1510. The following applies: Morganella morganii. The protocol: as §1, §2, §3, §4
Test [9] deals with Providencia stuartii 5158. Description: In vitro antibacterial activity, MIC, Providencia stuartii 5158. The protocol: as §1, §2, §3, §4
The subject of test [10] is Serratia liquefaciens 376. The test is described as follows: In vitro antibacterial activity, MIC, Serratia liquefaciens 376. The following applies: 37° C., pH=7.4, inoculum 10^4, read-out: MIC. The protocol:
as §1, §2, §3, §4

The test system of test [11] is Klebsiella pneumoniae ATCC 10031. The test is described as follows: In vitro antibacterial activity, MIC, Klebsiella pneumoniae ATCC 10031. The following applies: ATCC10031. The protocol:
as §1, §2, §3, §4

Test [12] has as its system Klebsiella pneumoniae R 30. The test is described as follows: In vitro antibacterial activity, MIC, Klebsiella pneumoniae R 30. The following applies: R30. The protocol: as §1, §2, §3, §4
The test system of test [13] is Enterobacter cloacae P 99. The test is described as follows: In vitro antibacterial activity, MIC, Enterobacter cloacae P 99. The following applies: Enterobacter cloacae, P99. The protocol:
as §1, §2, §3, §4

The test system of test [14] is Enterobacter hafniae RO 46. The test is described as follows: In vitro antibacterial activity, MIC, Enterobacter hafniae RO 46. The following applies: Hafnia alvei, RO46. The protocol: as §1, §2, §3, §4
For another test, the system named is Shigella sonnei R 018. Description: In vitro antibacterial activity, MIC, Shigella sonnei R 018. The following applies: R018, 37° C., pH=7.4, inoculum 10^4. The protocol:
as §1, §2, §3, §4

For test [15], the system named is Salmonella typhimurium A 222 IP. The test is described as follows: In vitro antibacterial activity, MIC, Salmonella typhimurium A 222 IP. The following applies: Salmonella enterica. The protocol: as §1, §2, §3, §4
Test [16] has as its system Salmonella typhi ATCC 6539. The test is described as follows: In vitro antibacterial activity, MIC, Salmonella typhi ATCC 6539. The following applies: Salmonella enterica. The protocol:
as §1, §2, §3, §4

Test [17] deals with Bordetella bronchiseptica ATCC 4617. Description: In vitro antibacterial activity, MIC, Bordetella bronchiseptica ATCC 4617. The following applies: ATCC4617, 37° C., pH=7.4, inoculum 10^4, read-out: MIC. The protocol:
as §1, §2, §3, §4

The test system of test [18] is Pseudomonas aeruginosa 8203. Description: In vitro antibacterial activity, MIC, Pseudomonas aeruginosa 8203. The following applies: 37° C., pH=7.4, inoculum 10^4, read-out: MIC. The protocol:
as §1, §2, §3, §4

In test [19] the test system is Acinetobacter calcoaceticus C 1733. The test is described as follows: In vitro antibacterial activity, MIC, Acinetobacter calcoaceticus C 1733. The following applies: C1733, 37° C., pH=7.4, inoculum 10^4, read-out: MIC. The protocol: as §1, §2, §3, §4
Setting [20] is: Bacillus subtilis ATCC 6633, 37° C., pH=7.4, inoculum 10^4, read-out: MIC.
The mark [21] stands for this setting: Escherichia coli 54127 IP, 37° C., pH=7.4, inoculum 10^4, read-out: MIC.
The mark [22] stands for this setting: Escherichia coli SOL RL 90, 37° C., pH=7.4, inoculum 10^4, read-out: MIC.
Where [23] appears, read: Citrobacter freundii GN 346, 37° C., pH=7.4, inoculum 10^4, read-out: MIC.
Where [24] appears, read: Proteus vulgaris RL 99 bis, 37° C., pH=7.4, inoculum 10^4, read-out: MIC.
[25] abbreviates: Proteus mirabilis ATCC 21100, 37° C., pH=7.4, inoculum 10^4, read-out: MIC.
The mark [26] stands for this setting: Proteus morganii 1510, 37° C., pH=7.4, inoculum 10^4, read-out: MIC.
Where [27] appears, read: Providencia stuartii 5158, 37° C., pH=7.4, inoculum 10^4, read-out: MIC.
Setting [28] is: Klebsiella pneumoniae ATCC 10031, 37° C., pH=7.4, inoculum 10^4, read-out: MIC.
The mark [29] stands for this setting: Klebsiella pneumoniae R 30, 37° C., pH=7.4, inoculum 10^4, read-out: MIC.
[30] abbreviates: Enterobacter hafniae RO 46, 37° C., pH=7.4, inoculum 10^4, read-out: MIC.
The mark [31] stands for this setting: Salmonella typhimurium A 222 IP, 37° C., pH=7.4, inoculum 10^4, read-out: MIC.

≈ marks a conversion by molar mass, not a printed value. Like-named read-outs stand apart in the source and are kept apart here.

As for `CCn1cc(C(=O)O)c(=O)c2cc(C=NOCCCN(C)C)sc21` [Compound E, 4,7-Dihydro-7-ethyl-2-(3-N,N-dimethylamino-propoxy)-iminomethyl-4-oxo-thieno[2,3-b]pyridine-5-carboxylic acid], the minimum inhibitory concentration (MIC) turned out to be 6.25 µg/mL (≈ 17.8 µM) in [1]; 100 µg/mL (≈ 285 µM) in test [2]; 6.25 µg/mL (≈ 17.8 µM) in test [3] (setting [20]); 6.25 µg/mL (≈ 17.8 µM) in test [4] (setting [21]); 25 µg/mL (≈ 71.1 µM) in test [5] (setting [22]); 12.5 µg/mL (≈ 35.6 µM) in test [6] (setting [23]). Besides, the minimal inhibitory concentration (MIC) in [7] (setting [24]) is 12.5 µg/mL (≈ 35.6 µM); in [8] (setting [25]) it was 3.12 µg/mL (≈ 8.88 µM); in the test on Proteus morganii 1510 (setting [26]), 25 µg/mL (≈ 71.1 µM); in test [9] (setting [27]), 25 µg/mL (≈ 71.1 µM); in test [10], 50 µg/mL (≈ 142 µM); in test [11] (setting [28]), 3.12 µg/mL (≈ 8.88 µM). The MIC in test [12] (setting [29]) worked out at 25 µg/mL (≈ 71.1 µM); in test [13], 12.5 µg/mL (≈ 35.6 µM); in [14] (setting [30]) it was 6.25 µg/mL (≈ 17.8 µM); against Shigella sonnei R 018, 25 µg/mL (≈ 71.1 µM); in test [15] (setting [31]) it was 25 µg/mL (≈ 71.1 µM); in [16], 25 µg/mL (≈ 71.1 µM). In addition, the MIC in test [17], in test [18] and in [19] was greater than 100 µg/mL each time.

For the compound `CCn1cc(C(=O)O)c(=O)c2cc(C=NOC(C)(C)C)sc21` [Compound I, 4,7-Dihydro-7-ethyl-4-oxo-2-tert-butoxyiminomethyl-thieno[2,3-b]pyridine-5-carboxylic acid], the minimum inhibitory concentration (MIC) in test [1] was greater than 50 µg/mL; in test [2], greater than 100 µg/mL; in test [3] (setting [20]), 1.56 µg/mL (≈ 4.84 µM); in [4] (setting [21]), greater than 25 µg/mL; in [5] (setting [22]) it was greater than 50 µg/mL; in [6] (setting [23]) it was greater than 25 µg/mL. In addition, the MIC was greater than 50 µg/mL in test [7] (setting [24]); greater than 25 µg/mL in test [8] (setting [25]); greater than 25 µg/mL in the test with Proteus morganii 1510 (setting [26]); greater than 50 µg/mL in test [9] (setting [27]); greater than 25 µg/mL in test [10]; 3.12 µg/mL (≈ 9.68 µM) in test [11] (setting [28]). The minimum inhibitory concentration (MIC) in test [12] (setting [29]) was greater than 25 µg/mL; in test [13], greater than 25 µg/mL; in [14] (setting [30]), greater than 25 µg/mL; against Shigella sonnei R 018, greater than 50 µg/mL; in test [15] (setting [31]), greater than 50 µg/mL; in test [16], greater than 25 µg/mL. Also, the minimum inhibitory concentration (MIC) in test [17], in test [18] and in [19] was greater than 25 µg/mL in each case.

In the case of `CCn1cc(C(=O)O)c(=O)c2cc(/C=N/O)sc21` [Compound B, 4,7-Dihydro-7-ethyl-2-hydroxyiminomethyl-4-oxo-thieno[2,3-b]pyridine-5-carboxylic acid, anti-isomer], the MIC is 12.5 µg/mL (≈ 46.9 µM) in test [1]; greater than 100 µg/mL in test [2]; 6.25 µg/mL (≈ 23.5 µM) in test [3] (Bacillus subtilis); 3.12 µg/mL (≈ 11.7 µM) in test [4] (Escherichia coli, 54127IP); 3.12 µg/mL (≈ 11.7 µM) in test [5] (Escherichia coli); 3.12 µg/mL (≈ 11.7 µM) in test [6] (Citrobacter freundii). The minimal inhibitory concentration (MIC) in test [7] (setting [24]) turned out to be 0.8 µg/mL (≈ 3 µM); in test [8] (Proteus mirabilis) it was 1.56 µg/mL (≈ 5.86 µM); with Proteus morganii 1510 (setting [26]), 0.4 µg/mL (≈ 1.5 µM); in test [9] (Providencia stuartii, 5158) it was 6.25 µg/mL (≈ 23.5 µM); in test [10] it was 50 µg/mL (≈ 188 µM); in test [11] (Klebsiella pneumoniae) it was 1.56 µg/mL (≈ 5.86 µM). The minimal inhibitory concentration (MIC) in test [12] (Klebsiella pneumoniae) was 6.25 µg/mL (≈ 23.5 µM); in [13], 6.25 µg/mL (≈ 23.5 µM); in test [14] it was 3.12 µg/mL (≈ 11.7 µM); in the test on Shigella sonnei R 018, 0.8 µg/mL (≈ 3 µM); in test [15] (TYPHIMURIUM) it was 3.12 µg/mL (≈ 11.7 µM); in test [16], 6.25 µg/mL (≈ 23.5 µM). For the same compound, the MIC is greater than 100 µg/mL in test [17], 100 µg/mL (≈ 376 µM) in test [18] and greater than 100 µg/mL in [19].

On to `CCn1cc(C(=O)O)c(=O)c2cc(C=Nc3ccccc3O)sc21` [Compound F, 4,7-Dihydro-7-ethyl-2-N-(2-hydroxy-phenyl)-iminomethyl-4-oxo-thieno[2,3-b]pyridine-5-carboxylic acid], for which the MIC is 100 µg/mL (≈ 292 µM) in test [1]; greater than 100 µg/mL in test [2]; 6.25 µg/mL (≈ 18.3 µM) in test [3] (Bacillus subtilis); 1.56 µg/mL (≈ 4.56 µM) in [4] (setting [21]); 3.12 µg/mL (≈ 9.11 µM) in test [5] (Escherichia coli); 6.25 µg/mL (≈ 18.3 µM) in [6] (Citrobacter freundii). Also, the minimum inhibitory concentration (MIC) is 3.12 µg/mL (≈ 9.11 µM) in test [7] (Proteus vulgaris); 3.12 µg/mL (≈ 9.11 µM) in test [8] (Proteus mirabilis); 6.25 µg/mL (≈ 18.3 µM) in the test with Proteus morganii 1510 (1510); 12.5 µg/mL (≈ 36.5 µM) in test [9] (setting [27]); greater than 100 µg/mL in [10]; 12.5 µg/mL (≈ 36.5 µM) in test [11] (setting [28]). The MIC was 12.5 µg/mL (≈ 36.5 µM) in [12] (setting [29]); 6.25 µg/mL (≈ 18.3 µM) in test [13]; 1.56 µg/mL (≈ 4.56 µM) in test [14] (setting [30]); 6.25 µg/mL (≈ 18.3 µM) with Shigella sonnei R 018; 3.12 µg/mL (≈ 9.11 µM) in test [15] (TYPHIMURIUM); 3.12 µg/mL (≈ 9.11 µM) in [16]. Also, the figures for the MIC in test [17], in [18] and in [19] were greater than 100 µg/mL, greater than 100 µg/mL and 100 µg/mL (≈ 292 µM), respectively.

One may read the MIC as the lowest concentration found to suppress growth.

Values taken from patent publication US4663329A, “Thienopyridinone derivatives and anti-bacterial compositions containing them” (Sanofi, priority 1984, dated 1987).
